In the NIST ThermoML archive (doi:10.1007/s10765-010-0766-0):

Assay: molar heat capacity at constant volume; wn = mass fraction of the nth substance listed
Conditions: Liquid, Vacuum adiabatic calorimetry, w2 = 0.4981

FC(F)C(F)(F)F [pentafluoroethane] + FCF
Conditions | molar heat capacity at constant volume [J/K/mol]
357.15 K, 9042 kPa | 82.22
357.15 K, 9048 kPa | 82.43
357.15 K, 16243 kPa | 68.41
357.15 K, 16254 kPa | 69.93
357.15 K, 16277 kPa | 69.42
358.15 K, 9284 kPa | 81.71
358.15 K, 9290 kPa | 83.6
358.15 K, 16617 kPa | 69.79
358.15 K, 16628 kPa | 70.73
358.15 K, 16652 kPa | 69.13
359.15 K, 9527 kPa | 82.29
359.15 K, 9532 kPa | 83.09
359.15 K, 16990 kPa | 69.86
359.15 K, 17003 kPa | 71.24
359.15 K, 17027 kPa | 67.9
360.15 K, 9770 kPa | 82.07
360.15 K, 9775 kPa | 82.29
360.15 K, 17365 kPa | 69.42
360.15 K, 17377 kPa | 68.55
360.15 K, 17401 kPa | 69.64
361.15 K, 10013 kPa | 81.2
361.15 K, 10019 kPa | 82.73
361.15 K, 17739 kPa | 70.08
361.15 K, 17752 kPa | 71.46
361.15 K, 17776 kPa | 68.48
362.15 K, 10256 kPa | 82.65
362.15 K, 10262 kPa | 83.31
362.15 K, 18113 kPa | 69.42
362.15 K, 18127 kPa | 71.17
362.15 K, 18151 kPa | 69.06
363.15 K, 10501 kPa | 80.69
363.15 K, 10506 kPa | 82.22
363.15 K, 18487 kPa | 70.59
363.15 K, 18501 kPa | 69.57
363.15 K, 18526 kPa | 69.79
364.15 K, 10745 kPa | 81.78
364.15 K, 10751 kPa | 81.56
364.15 K, 18862 kPa | 69.2
364.15 K, 18876 kPa | 70.8
364.15 K, 18899 kPa | 68.91
365.15 K, 10990 kPa | 81.49
365.15 K, 10996 kPa | 82.29
365.15 K, 19236 kPa | 69.57
365.15 K, 19250 kPa | 69.79
365.15 K, 19274 kPa | 70.08
366.15 K, 11235 kPa | 80.04
366.15 K, 11241 kPa | 81.78
366.15 K, 19610 kPa | 70
366.15 K, 19625 kPa | 70.22
366.15 K, 19649 kPa | 68.99
367.15 K, 11480 kPa | 81.49
367.15 K, 11486 kPa | 81.93
367.15 K, 19985 kPa | 69.06
367.15 K, 20000 kPa | 69.86
367.15 K, 20025 kPa | 68.48
368.15 K, 11726 kPa | 81.42
368.15 K, 11732 kPa | 82.07
368.15 K, 20360 kPa | 69.35
368.15 K, 20375 kPa | 69.71
368.15 K, 20400 kPa | 68.77
369.15 K, 11972 kPa | 79.89
369.15 K, 11979 kPa | 82.73
369.15 K, 20734 kPa | 69.42
369.15 K, 20750 kPa | 70
369.15 K, 20776 kPa | 68.7
370.15 K, 12219 kPa | 80.69
370.15 K, 12225 kPa | 80.76
370.15 K, 21109 kPa | 70.8
370.15 K, 21125 kPa | 69.35
370.15 K, 21150 kPa | 69.2
371.15 K, 12465 kPa | 80.25
371.15 K, 12472 kPa | 82.07
371.15 K, 21484 kPa | 70.3
371.15 K, 21500 kPa | 71.82
371.15 K, 21525 kPa | 68.55
372.15 K, 12712 kPa | 80.11
372.15 K, 12719 kPa | 81.78
372.15 K, 21859 kPa | 70.44
372.15 K, 21875 kPa | 69.64
372.15 K, 21901 kPa | 69.42
373.15 K, 12959 kPa | 80.91
373.15 K, 12966 kPa | 82.43
373.15 K, 22234 kPa | 69.86
373.15 K, 22250 kPa | 71.17
373.15 K, 22277 kPa | 69.57
374.15 K, 13207 kPa | 80.11
374.15 K, 13213 kPa | 81.71
374.15 K, 22609 kPa | 70.59
374.15 K, 22625 kPa | 70.37
374.15 K, 22654 kPa | 69.2
375.15 K, 13454 kPa | 80.04
375.15 K, 13461 kPa | 81.85
375.15 K, 22984 kPa | 71.68
375.15 K, 23000 kPa | 72.33
375.15 K, 23029 kPa | 70.15
376.15 K, 13702 kPa | 80.76
376.15 K, 13709 kPa | 82.87
376.15 K, 23359 kPa | 71.6
376.15 K, 23375 kPa | 71.02
376.15 K, 23406 kPa | 70.08
377.15 K, 13950 kPa | 82.14
377.15 K, 13957 kPa | 81.34
377.15 K, 23734 kPa | 71.24
377.15 K, 23750 kPa | 71.6
377.15 K, 23780 kPa | 70.88
378.15 K, 14198 kPa | 80.25
378.15 K, 14205 kPa | 80.18
378.15 K, 24109 kPa | 72.04
378.15 K, 24125 kPa | 71.82
378.15 K, 24155 kPa | 70.51
379.15 K, 14447 kPa | 81.2
379.15 K, 14454 kPa | 81.85
379.15 K, 24484 kPa | 72.04
379.15 K, 24500 kPa | 70.95
379.15 K, 24531 kPa | 70.22
380.15 K, 14696 kPa | 80.47
380.15 K, 14702 kPa | 80.84
380.15 K, 24858 kPa | 72.11
380.15 K, 24875 kPa | 71.6
380.15 K, 24906 kPa | 70.88
381.15 K, 14944 kPa | 80.54
381.15 K, 14951 kPa | 81.93
381.15 K, 25233 kPa | 72.33
381.15 K, 25250 kPa | 71.6
381.15 K, 25282 kPa | 68.91
382.15 K, 15194 kPa | 81.2
382.15 K, 15200 kPa | 81.2
382.15 K, 25608 kPa | 70.51
382.15 K, 25625 kPa | 71.75
382.15 K, 25657 kPa | 69.64
383.15 K, 15443 kPa | 80.18
383.15 K, 15449 kPa | 81.13
383.15 K, 25983 kPa | 72.33
383.15 K, 26000 kPa | 71.75
383.15 K, 26033 kPa | 69.93
384.15 K, 15692 kPa | 82.29
384.15 K, 15699 kPa | 80.62
384.15 K, 26358 kPa | 72.69
384.15 K, 26375 kPa | 72.84
384.15 K, 26408 kPa | 70
385.15 K, 15942 kPa | 79.6
385.15 K, 15948 kPa | 82.58
385.15 K, 26733 kPa | 72.55
385.15 K, 26750 kPa | 72.4
385.15 K, 26784 kPa | 69.28
386.15 K, 16192 kPa | 81.2
386.15 K, 16198 kPa | 83.09
386.15 K, 27107 kPa | 72.4
386.15 K, 27125 kPa | 72.77
386.15 K, 27159 kPa | 68.48
387.15 K, 16442 kPa | 79.31
387.15 K, 16448 kPa | 81.34
387.15 K, 27482 kPa | 73.57
387.15 K, 27500 kPa | 73.57
387.15 K, 27533 kPa | 70.66
388.15 K, 16692 kPa | 80.62
388.15 K, 16698 kPa | 82.51
388.15 K, 27856 kPa | 73.71
388.15 K, 27874 kPa | 73.71
388.15 K, 27907 kPa | 69.06
389.15 K, 16942 kPa | 80.76
389.15 K, 16948 kPa | 82.07
389.15 K, 28231 kPa | 74.08
389.15 K, 28249 kPa | 73.86
389.15 K, 28282 kPa | 70.22
390.15 K, 17192 kPa | 80.84
390.15 K, 17198 kPa | 83.74
390.15 K, 28605 kPa | 74.08
390.15 K, 28624 kPa | 74.73
390.15 K, 28657 kPa | 70.3
391.15 K, 17442 kPa | 81.05
391.15 K, 17448 kPa | 83.67
391.15 K, 28979 kPa | 73.78
391.15 K, 28998 kPa | 72.77
391.15 K, 29032 kPa | 70.44
392.15 K, 17692 kPa | 81.05
392.15 K, 17698 kPa | 81.34
392.15 K, 29354 kPa | 72.77
392.15 K, 29373 kPa | 71.31
392.15 K, 29407 kPa | 68.84
393.15 K, 17943 kPa | 79.38
393.15 K, 17949 kPa | 81.27
393.15 K, 29728 kPa | 74
393.15 K, 29782 kPa | 72.19
394.15 K, 18193 kPa | 82
394.15 K, 18199 kPa | 80.84
395.15 K, 18444 kPa | 80.18
395.15 K, 18450 kPa | 83.89
396.15 K, 18701 kPa | 80.62
397.15 K, 18951 kPa | 82.36
